Data: patent US20100168084A1, “Therapeutic compounds and related methods of use” (priority 2008, published 2010)
Where two headings read alike, the source gives them in different places.

Legend:
[1] = molecular target: cytochrome oxidase (Complex IV) (Homo sapiens, UniProt P00395); settings: cited from earlier work
sirtuin protein [2] = molecular target: T1, sirtuin protein (Homo sapiens, UniProt Q96EB6); assay: MS assay (IC50 MS ASSAY / ED50 MS / FOLD ACTIVATION MS); format: biochemical; parameters: scale not given here
T1 sequence (Q96EB6 2-747 limits assumed): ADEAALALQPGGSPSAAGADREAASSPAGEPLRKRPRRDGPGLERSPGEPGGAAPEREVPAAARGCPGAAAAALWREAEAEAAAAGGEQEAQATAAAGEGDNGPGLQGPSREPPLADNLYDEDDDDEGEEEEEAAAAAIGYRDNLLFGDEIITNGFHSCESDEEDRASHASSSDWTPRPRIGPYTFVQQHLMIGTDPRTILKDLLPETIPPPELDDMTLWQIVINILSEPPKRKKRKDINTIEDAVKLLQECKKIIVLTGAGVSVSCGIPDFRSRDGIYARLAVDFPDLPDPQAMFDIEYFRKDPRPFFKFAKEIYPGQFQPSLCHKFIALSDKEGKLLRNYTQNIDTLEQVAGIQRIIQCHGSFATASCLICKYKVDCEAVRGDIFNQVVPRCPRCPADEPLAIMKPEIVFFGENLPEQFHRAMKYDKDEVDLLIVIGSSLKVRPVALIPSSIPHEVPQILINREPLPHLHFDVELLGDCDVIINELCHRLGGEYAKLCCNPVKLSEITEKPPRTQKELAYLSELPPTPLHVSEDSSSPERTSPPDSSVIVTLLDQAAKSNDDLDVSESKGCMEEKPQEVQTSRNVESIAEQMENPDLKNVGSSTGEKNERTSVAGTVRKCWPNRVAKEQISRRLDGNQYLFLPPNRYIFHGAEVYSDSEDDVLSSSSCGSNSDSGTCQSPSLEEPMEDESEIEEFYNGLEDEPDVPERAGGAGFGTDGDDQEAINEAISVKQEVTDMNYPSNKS

sirtuin protein [3] = assay: FP assay (IC50 FP ASSAY / ED50 FP); format: biochemical; settings: Table 4
[4] = topical; cited from earlier work

[N]=O [Nitric oxide]
concentration that inhibits cytochrome oxidase (Complex IV) [1]: about 1 micromolar

O=C1CN(Cc2csc3nc(-c4ccccc4NC(=O)c4cnc5ccccc5n4)cn23)CCN1 [Compound 677]
ED50 MS ASSAY (sirtuin protein [2]): A′ | ED50 MS ASSAY (sirtuin protein [2]; Table 4, class symbols): A′ | ED50 MS ASSAY (sirtuin protein [2]; Table 4, class symbols A′, A, B, D, NA, legend not given): A′ | ED50 MS ASSAY (sirtuin protein [2]; class symbols (A′, A, B, D, NA), no legend given): A′ | ED50 FP ASSAY (sirtuin protein [3]): A′

CC(C)(C)NC[C@H](O)COc1nsnc1N1CCOCC1 [timolol]
time for IOP to fall [4]: 30 min | time of peak effects on IOP [4]: 1 to 2 h
